Data on eleven compounds can be found in US12612424B2, “HPK1 inhibitors and uses thereof” (Regor Pharmaceuticals, Inc., priority 2019, dated 2026).

The structures appear in SMILES notation. Read-outs that look alike come from different tables or passages of the source.

Assay [1] addresses T1, JAK3 (Homo sapiens, UniProt P52333).
T1 construct: purchased Thermo fisher PV3855
Nature of the assay: JAK3 biochemical assay (ADP-GLO Kinase Assay). Conditions: for JAKs/HPK1 IC50 Ratio, B* / JAKs/HPK1 IC50 Ratio, N*: ratio of JAK3 IC50 to HPK1 IC50; for JAKs/HPK1 IC50 Ratio, B*: first testing facility; for JAKs/HPK1 IC50 Ratio, N*: second testing facility. Put shortly:
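Human JAK3 (0.78 ng) with 0.2 μg/μL Poly(E4Y1) and 4 μM ATP in 40 mM Tris pH 7.5, 20 mM MgCl2, 0.1 mg/ml BSA, 50 μM DTT, 1% DMSO; 60 min at 25 °C. ADP formed read by ADP-Glo luminescence. 10-dose 3-fold series from 10 μM; IC50 by three-parameter logistic fit.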

In assay [2] the target is HPK1 (Homo sapiens, UniProt Q92918). As to the kind of experiment: HPK1 biochemical assay (ADP-GLO Kinase Assay). A digest of the protocol: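 HPK1 (0.6 ng/μL final) activity was followed with MBP substrate and 10 μM ATP in Tris pH 7.5/MgCl2/BSA/DTT buffer, measured by ADP-Glo luminescence. Compounds were tested as 3-fold dilutions from 10 μM. IC50 came from a three-parameter logistic fit, with inhibition normalised to high/low controls.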
Sequence of HPK1 (Q92918 whole entry): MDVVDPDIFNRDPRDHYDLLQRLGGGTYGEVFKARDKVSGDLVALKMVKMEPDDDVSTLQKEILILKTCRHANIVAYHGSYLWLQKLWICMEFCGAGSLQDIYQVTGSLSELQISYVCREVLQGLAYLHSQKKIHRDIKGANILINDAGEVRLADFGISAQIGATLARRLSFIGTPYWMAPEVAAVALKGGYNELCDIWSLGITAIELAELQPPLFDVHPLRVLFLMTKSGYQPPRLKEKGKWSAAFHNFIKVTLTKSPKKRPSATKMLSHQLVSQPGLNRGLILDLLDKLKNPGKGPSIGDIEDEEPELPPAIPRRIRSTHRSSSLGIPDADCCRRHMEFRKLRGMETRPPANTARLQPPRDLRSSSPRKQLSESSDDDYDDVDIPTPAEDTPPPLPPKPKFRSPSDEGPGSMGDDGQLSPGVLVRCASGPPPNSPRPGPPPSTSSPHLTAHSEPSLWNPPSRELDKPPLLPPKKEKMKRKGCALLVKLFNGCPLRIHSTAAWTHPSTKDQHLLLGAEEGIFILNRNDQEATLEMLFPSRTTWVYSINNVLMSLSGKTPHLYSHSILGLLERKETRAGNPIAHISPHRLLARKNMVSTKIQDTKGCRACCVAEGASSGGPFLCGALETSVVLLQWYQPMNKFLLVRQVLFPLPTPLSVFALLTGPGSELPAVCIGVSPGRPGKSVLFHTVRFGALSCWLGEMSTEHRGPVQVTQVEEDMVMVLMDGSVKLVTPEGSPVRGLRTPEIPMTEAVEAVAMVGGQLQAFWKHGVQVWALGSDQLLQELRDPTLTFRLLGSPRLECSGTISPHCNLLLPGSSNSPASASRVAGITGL

[3] abbreviates: B*: testing performed in a first testing facility, read-out: JAK3 IC50 (nM) Relative, B*.
Setting [4] is: B*: testing performed in a first testing facility, read-out: HPK1 IC50 (nM) Relative, B*.
Setting [5] is: N*: testing performed in a second testing facility, read-out: JAK3 IC50 (nM) Relative, N*.
Where [6] appears, read: N*: testing performed in a second testing facility, read-out: HPK1 IC50 (nM) Relative, N*.

T1 sequence (P52333 781-1124 limits assumed): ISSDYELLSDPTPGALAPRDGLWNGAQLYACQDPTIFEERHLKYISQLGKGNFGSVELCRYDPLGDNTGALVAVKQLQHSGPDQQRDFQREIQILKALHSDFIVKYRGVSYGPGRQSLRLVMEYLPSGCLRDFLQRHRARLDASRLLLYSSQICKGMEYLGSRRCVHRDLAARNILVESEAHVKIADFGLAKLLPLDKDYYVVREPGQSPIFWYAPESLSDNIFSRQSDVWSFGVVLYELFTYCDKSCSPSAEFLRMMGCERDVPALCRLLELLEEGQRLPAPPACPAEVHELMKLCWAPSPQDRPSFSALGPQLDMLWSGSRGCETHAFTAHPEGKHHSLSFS

On to `COc1cc2c(cc1Nc1ncc(Cl)c(N3CCc4ccc(Cl)cc43)n1)CN(C)CC2` [Example 18, N-(5-chloro-4-(6-chloroindolin-1-yl)pyrimidin-2-yl)-6-methoxy-2-methyl-1,2,3,4-tetrahydroisoquinolin-7-amine], for which the figures for the concentration for half-maximal inhibition (IC50) in assay [1] (setting [3]) and in assay [2] (setting [4]) were above 1000 nM and at most 100 nM, respectively. Besides, the “JAKs/HPK1 IC50 Ratio, B*” value in assay [1] is given as above 446.

For the compound `COc1cc2c(cc1Nc1ncc(Cl)c(N3CC(C(=O)O)C4(CCCCC4)C3)n1)CN(C)CC2` (stereo not shown) [Example 167, 2-(5-Chloro-2-((6-methoxy-2-methyl-1,2,3,4-tetrahydroisoquinolin-7-yl)amino)pyrimidin-4-yl)-2-azaspiro[4.5]decane-4-carboxylic acid], the IC50 in assay [1] (setting [3]) is above 1000 nM; in assay [2] (setting [4]), at most 100 nM. For the same compound, the “JAKs/HPK1 IC50 Ratio, B*” value in assay [1] was 995.

For the compound `CN1CCc2cc(F)c(Nc3ncc(Cl)c(N4CC(C)(CC(=O)O)c5ccccc54)n3)cc2C1` (stereo not shown) [Example 156], the IC50 in assay [1] (setting [3]) and in assay [2] (setting [4]) was at most 100 nM throughout. Besides, the “JAKs/HPK1 IC50 Ratio, B*” value in assay [1] is on record as 29.

With `COc1cc2c(cc1Nc1ncc(Cl)c(N3CC(C(=O)NO)c4ccccc43)n1)CN(C)CC2` (stereo not shown) [Example 101, 1-(5-Chloro-2-((6-methoxy-2-methyl-1,2,3,4-tetrahydroisoquinolin-7-yl)amino)pyrimidin-4-yl)-N-hydroxyindoline-3-carboxamide], the figures for the IC50 in assay [1] (setting [3]) and in assay [2] (setting [4]) were above 1000 nM and at most 100 nM, respectively. The “JAKs/HPK1 IC50 Ratio, B*” value in assay [1] was 373.

Regarding `COc1cc2c(cc1Nc1ncc(Cl)c(-n3cc(C4(O)COC4)c4ccccc43)n1)CN(C)CC2` [Example 93], the IC50 is above 1000 nM in assay [1] (setting [3]) and 100 to 500 nM in assay [2] (setting [4]).

`COc1cc2c(cc1Nc1ncc(Cl)c(N3CC(C)(CC(=O)O)c4ccc(F)cc43)n1)CN(C)CC2` (stereo not shown) [Example 151]: the IC50 in assay [1] (setting [3]) and in assay [2] (setting [4]) was at most 100 nM each time. The “JAKs/HPK1 IC50 Ratio, B*” value in assay [1] is reported as 187.

Turning to `CCN1CCc2cc(OC)c(Nc3ncc(Cl)c(N4CC(C)(CC(=O)O)c5ccccc54)n3)cc2C1` (stereo not shown) [Example 157, 2-(1-(5-Chloro-2-((2-ethyl-6-methoxy-1,2,3,4-tetrahydroisoquinolin-7-yl)amino)pyrimidin-4-yl)-3-methylindolin-3-yl)acetic acid], the half-maximal inhibitory concentration (IC50) in assay [1] (setting [3]) was 100 to 500 nM; in assay [2] (setting [4]), at most 100 nM. Moreover, in assay [1], the “JAKs/HPK1 IC50 Ratio, B*” value worked out at 176.

`COc1cc2c(cc1Nc1ncc(Cl)c(-n3cc(CC(=O)OC(C)C)c4ccccc43)n1)CN(C)CC2` [Example 130, Isopropyl 2-(1-(5-chloro-2-((6-methoxy-2-methyl-1,2,3,4-tetrahydroisoquinolin-7-yl)amino)pyrimidin-4-yl)-1H-indol-3-yl)acetate]: the results for the half-maximal inhibitory concentration (IC50) in assay [1] (setting [3]) and in assay [2] (setting [4]) were above 1000 nM and at most 100 nM, respectively. Also, the “JAKs/HPK1 IC50 Ratio, B*” value in assay [1] is on record as above 243.

Consider `CN1CCc2cc(Cl)c(Nc3ncc(Cl)c(N4CCc5ccccc54)n3)cc2C1` [Example 15, 6-Chloro-N-(5-chloro-4-(indolin-1-yl)pyrimidin-2-yl)-2-methyl-1,2,3,4-tetrahydroisoquinolin-7-amine], for which the results for the IC50 in assay [1] (setting [3]) and in assay [2] (setting [4]) were above 1000 nM and at most 100 nM, respectively. In addition, the “JAKs/HPK1 IC50 Ratio, B*” value in assay [1] is reported as 174.

`COc1cc2c(cc1Nc1ncc(Cl)c(-n3cc(C(=O)N(C)C)c4ccccc43)n1)CN(C)CC2` [Example 8]: the 50% inhibitory concentration (IC50) in assay [1] (setting [5]) was above 1000 nM; in assay [2] (setting [4]), at most 100 nM; in assay [2] (setting [6]), at most 100 nM. The “JAKs/HPK1 IC50 Ratio, N*” value in assay [1] was above 2457.

As for `COc1cc2c(cc1Nc1ncc(Cl)c(-n3cnc4ccccc43)n1)CN(C)CC2` [Example 9, N-(4-(1H-benzo[d]imidazol-1-yl)-5-chloropyrimidin-2-yl)-6-methoxy-2-methyl-1,2,3,4-tetrahydroisoquinolin-7-amine], the figures for the concentration for half-maximal inhibition (IC50) in assay [1] (setting [5]), in assay [2] (setting [4]) and in assay [2] (setting [6]) were above 1000 nM, at most 100 nM and at most 100 nM, respectively. For the same compound, the “JAKs/HPK1 IC50 Ratio, N*” value in assay [1] came to 571.
